Laboratory results published in patent US9924717B2, “Molecules having pesticidal utility, and intermediates, compositions, and processes, related thereto” (Dow AgroSciences LLC, priority 2016, dated 2018).
Like-named read-outs stand apart in the source and are kept apart here.

Assays:
Format in all cases: in vivo
[1] = tested on: Cabbage Looper (Trichoplusia ni, TRIPNI) (CL); test: Bioassays on Cabbage Looper (CL), 128-well diet tray assay; conditions: for pest or weed control at 50 µg/cm2: Table ABC rating, Cabbage Looper; for mortality at 5 µg/cm2: 168 h, diet tray, second instar larvae, five to seven days, read-out: Percent control (or mortality) CL
Procedure: (§1) Example A: Bioassays on Beet Armyworm (Spodoptera exigua, LAPHEG) (“BAW”), Corn Earworm (Helicoverpa zea, Helize) (“CEW”), and Cabbage Looper (Trichoplusia ni, TRIPNI) (“CL”)
(§2) Certain molecules disclosed in this document were tested against BAW, CEW, and CL using procedures described in the following examples. In the reporting of the results, the “BAW, CEW, & CL Rating Table” was used (See Table Section).
Bioassays on CL were conducted using a 128-well diet tray assay. one to five second instar CL larvae were placed in each well (3 mL) of the diet tray that had been previously filled with 1 mL of artificial diet to which 50 μg/cm^2 of the test molecule (dissolved in 50 μL of 90:10 acetone-water mixture) had been applied (to each of eight wells) and then allowed to dry. Trays were covered with a clear self-adhesive cover and held at 25° C., 14:10 light-dark for five to seven days. Percent mortality was recorded for the larvae in each well; activity in the eight wells was then averaged. The results are indicated in the table entitled “Table ABC: Biological Results” (See Table Section).
(§3) Bioassays on BAW and CL were conducted according to the procedures outlined in Example A: Bioassays on Beet Armyworm (“BAW”) and Cabbage Looper (“CL”) using the indicated concentrations.

[2] = tested on: Beet Armyworm (Spodoptera exigua, LAPHEG) (BAW); test: Bioassays on Beet Armyworm (BAW), 128-well diet tray assay; conditions: for pest or weed control at 50 µg/cm2: Table ABC rating, Beet Armyworm; for mortality at 5 µg/cm2: 168 h, diet tray, second instar larvae, five to seven days, read-out: Percent control (or mortality) BAW
Procedure: as §1, §2
Bioassays on BAW were conducted using a 128-well diet tray assay. one to five second instar BAW larvae were placed in each well (3 mL) of the diet tray that had been previously filled with 1 mL of artificial diet to which 50 μg/cm^2 of the test molecule (dissolved in 50 μL of 90:10 acetone-water mixture) had been applied (to each of eight wells) and then allowed to dry. Trays were covered with a clear self-adhesive cover and held at 25° C., 14:10 light-dark for five to seven days. Percent mortality was recorded for the larvae in each well; activity in the eight wells was then averaged. The results are indicated in the table entitled “Table ABC: Biological Results” (See Table Section).
as §3

[3] = tested on: Yellow Fever Mosquito (Aedes aegypti, AEDSAE) (YFM); test: Bioassays on Yellow Fever Mosquito (YFM), 96-well plate larval assay; conditions: Table ABC rating
Procedure: Example C: Bioassays on Yellow Fever Mosquito (Aedes aegypti, AEDSAE) (“YFM”)
Certain molecules disclosed in this document were tested against YFM using procedures described in the following paragraph. In the reporting of the results, the “GPA & YFM Rating Table” was used (See Table Section).
Master plates containing 400 μg of a molecule dissolved in 100 μL of dimethyl sulfoxide (DMSO) (equivalent to a 4000 ppm solution) are used. A master plate of assembled molecules contains 15 μL per well. To this plate, 135 μL of a 90:10 water:acetone mixture is added to each well. A robot (Biomek® NXP Laboratory Automation Workstation) is programmed to dispense 15 μL aspirations from the master plate into an empty 96-well shallow plate (“daughter” plate). There are 6 reps (“daughter” plates) created per master. The created daughter plates are then immediately infested with YFM larvae.
The day before plates are to be treated, mosquito eggs are placed in Millipore water containing liver powder to begin hatching (4 g. into 400 mL). After the daughter plates are created using the robot, they are infested with 220 μL of the liver powder/larval mosquito mixture (about 1 day-old larvae). After plates are infested with mosquito larvae, a non-evaporative lid is used to cover the plate to reduce drying. Plates are held at room temperature for 3 days prior to grading. After 3 days, each well is observed and scored based on mortality. The results are indicated in the table entitled “Table ABC: Biological Results” (See Table Section).

[4] = 5 μg/cm^2 (first BAW/CL column pair)
[5] = 5 μg/cm^2 as printed (second BAW/CL column pair)

Structure (SMILES): CC(NC(=O)c1ccc(/C(F)=C/C(c2cc(Cl)c(Cl)c(Cl)c2)C(F)(F)F)cc1C(F)(F)F)c1ccccn1 (stereo not drawn) [F52, (Z)—N-(1-(Pyridin-2-yl)ethyl)-4-(1,4,4,4-tetrafluoro-3-(3,4,5-trichlorophenyl)but-1-en-1-yl)-2-(trifluoromethyl)benzamide]
- pest or weed control at 50 µg/cm2 [1]: 50 to 100%
- pest or weed control at 50 µg/cm2 [2]: 50 to 100%
- YFM [3]: A (80-100)

Structure (SMILES): O=C(NC1CCC(F)(F)CC1)c1ccc(/C(F)=C/C(c2cc(Cl)c(F)c(Cl)c2)C(F)(F)F)cc1C(F)(F)F (stereo not drawn) [F41, (Z)-4-(3-(3,5-Dichloro-4-fluorophenyl)-1,4,4,4-tetrafluorobut-1-en-1-yl)-N-(4,4-difluorocyclohexyl)-2-(trifluoromethyl)benzamide]
- pest or weed control at 50 µg/cm2 [1]: 50 to 100%
- pest or weed control at 50 µg/cm2 [2]: 50 to 100%
- YFM [3]: A (80-100)

Structure (SMILES): O=C(NC1CC1)c1ccc(/C(F)=C/C(c2cc(Cl)c(Br)c(Cl)c2)C(F)(F)F)cc1C(F)(F)F (stereo not drawn) [F22, (Z)-4-(3-(4-Bromo-3,5-dichlorophenyl)-1,4,4,4-tetrafluorobut-1-en-1-yl)-N-cyclopropyl-2-(trifluoromethyl)benzamide]
- pest or weed control at 50 µg/cm2 [1]: 50 to 100%
- pest or weed control at 50 µg/cm2 [2]: 50 to 100%
- YFM [3]: A (80-100)

Structure (SMILES): O=C(NC1CCC(F)(F)CC1)c1ccc(/C(F)=C/C(c2ccc(Br)c(Br)c2)C(F)(F)F)cc1C(F)(F)F (stereo not drawn) [F44, (Z)-4-(3-(3,4-Dibromophenyl)-1,4,4,4-tetrafluorobut-1-en-1-yl)-N-(4,4-difluorocyclohexyl)-2-(trifluoromethyl)benzamide]
- pest or weed control at 50 µg/cm2 [1]: 50 to 100%
- pest or weed control at 50 µg/cm2 [2]: 50 to 100%
- YFM [3]: A (80-100)

Structure (SMILES): C[C@@H](NC(=O)c1ccc(/C(F)=C/C(c2ccc(Cl)c(Cl)c2)C(F)(F)F)cc1C(F)(F)F)C(F)(F)F (stereo partly drawn) [F16, 4-((Z)-3-(3,4-Dichlorophenyl)-1,4,4,4-tetrafluorobut-1-en-1-yl)-2-(trifluoromethyl)-N—((R)-1,1,1-trifluoropropan-2-yl)benzamide]
- pest or weed control at 50 µg/cm2 [1]: 50 to 100%
- pest or weed control at 50 µg/cm2 [2]: 50 to 100%
- YFM [3]: A (80-100)

Structure (SMILES): O=C(NC1CC1)c1ccc(/C(F)=C/C(c2cc(Cl)c(F)c(Cl)c2)C(F)(F)F)cc1C(F)(F)F (stereo not drawn) [F43, (Z)—N-Cyclopropyl-4-(3-(3,5-dichloro-4-fluorophenyl)-1,4,4,4-tetrafluorobut-1-en-1-yl)-2-(trifluoromethyl)benzamide]
- pest or weed control at 50 µg/cm2 [1]: 50 to 100%
- pest or weed control at 50 µg/cm2 [2]: 50 to 100%
- YFM [3]: A (80-100)

Structure (SMILES): CC(NC(=O)c1ccc(/C(F)=C/C(c2cc(Cl)cc(Cl)c2)C(F)(F)F)cc1C(F)(F)F)C(F)(F)F (stereo not drawn) [F15, 4-((Z)-3-(3,5-Dichlorophenyl)-1,4,4,4-tetrafluorobut-1-en-1-yl)-2-(trifluoromethyl)-N-(1,1,1-trifluoropropan-2-yl)benzamide]
- pest or weed control at 50 µg/cm2 [1]: 50 to 100%
- pest or weed control at 50 µg/cm2 [2]: 50 to 100%
- YFM [3]: A (80-100)

Structure (SMILES): Cc1cc(C(/C=C(\F)c2ccc(C(=O)NC3CCC(F)(F)CC3)c(C(F)(F)F)c2)C(F)(F)F)cc(C)c1Cl (stereo not drawn) [F31, (Z)-4-(3-(4-Chloro-3,5-dimethylphenyl)-1,4,4,4-tetrafluorobut-1-en-1-yl)-N-(4,4difluorocyclohexyl)-2-(trifluoromethyl)benzamide]
- pest or weed control at 50 µg/cm2 [1]: 50 to 100%
- pest or weed control at 50 µg/cm2 [2]: 50 to 100%
- YFM [3]: A (80-100)

Structure (SMILES): O=C(NC1CCC(F)(F)CC1)c1ccc(/C(F)=C/C(c2ccc(Cl)c(Cl)c2)C(F)(F)F)cc1C(F)(F)F (stereo not drawn) [F24, (Z)-4-(3-(3,4-Dichlorophenyl)-1,4,4,4-tetrafluorobut-1-en-1-yl)-N-(4,4-difluorocyclohexyl)-2-(trifluoromethyl)benzamide]
- pest or weed control at 50 µg/cm2 [1]: 50 to 100%
- pest or weed control at 50 µg/cm2 [2]: 50 to 100%
- YFM [3]: A (80-100)

Structure (SMILES): O=C(NC1CCC(F)(F)CC1)c1ccc(/C(F)=C/C(c2cc(Br)c(Cl)c(Br)c2)C(F)(F)F)cc1C(F)(F)F (stereo not drawn) [F32, (Z)-4-(3-(3,5-Dibromo-4-chlorophenyl)-1,4,4,4-tetrafluorobut-1-en-1-yl)-N-(4,4-difluorocyclohexyl)-2-(trifluoromethyl)benzamide]
- pest or weed control at 50 µg/cm2 [1]: 50 to 100%
- pest or weed control at 50 µg/cm2 [2]: 50 to 100%
- YFM [3]: A (80-100)

Structure (SMILES): F/C(=C\C(c1cc(Cl)c(Cl)c(Cl)c1)C(F)(F)F)c1ccc(C(=S)NCC(F)(F)F)c(C(F)(F)F)c1 (stereo not drawn) [F33, (Z)-4-(1,4,4,4-tetrafluoro-3-(3,4,5-trichlorophenyl)but-1-en-1-yl)-N-(2,2,2-trifluoroethyl)-2-(trifluoromethyl)benzothioamide]
- pest or weed control at 50 µg/cm2 [1]: 50 to 100%
- pest or weed control at 50 µg/cm2 [2]: 50 to 100%
- YFM [3]: B (More than 0-Less than 80)

Structure (SMILES): Cc1cc(/C(F)=C/C(c2cc(Cl)c(Cl)c(Cl)c2)C(F)(F)F)ccc1C(=O)NCC(F)(F)F (stereo not drawn) [F39, (Z)-2-Methyl-4-(1,4,4,4-tetrafluoro-3-(3,4,5-trichlorophenyl)but-1-en-1-yl)-N-(2,2,2-trifluoroethyl)benzamide]
- mortality at 5 µg/cm2 [1, 4]: 100%
- mortality at 5 µg/cm2 [1, 5]: 100%
- pest or weed control at 50 µg/cm2 [1]: 50 to 100%
- mortality at 5 µg/cm2 [2, 4]: 33%
- mortality at 5 µg/cm2 [2, 5]: 27%
- pest or weed control at 50 µg/cm2 [2]: 50 to 100%

Structure (SMILES): CC(NC(=O)c1ccc(/C(F)=C/C(c2cc(Cl)c(Br)c(Cl)c2)C(F)(F)F)cc1C(F)(F)F)C(F)(F)F (stereo not drawn) [F38, 4-((Z)-3-(4-Bromo-3,5-dichlorophenyl)-1,4,4,4-tetrafluorobut-1-en-1-yl)-2-(trifluoromethyl)-N-(1,1,1-trifluoropropan-2-yl)benzamide]
- pest or weed control at 50 µg/cm2 [1]: 50 to 100%
- pest or weed control at 50 µg/cm2 [2]: 50 to 100%

Structure (SMILES): O=C(NC1CS(=O)(=O)C1)c1ccc(/C(F)=C/C(c2cc(Cl)c(Cl)c(Cl)c2)C(F)(F)F)cc1C(F)(F)F (stereo not drawn) [PF4, (Z)—N-(1,1-Dioxidothietan-3-yl)-4-(1,4,4,4-tetrafluoro-3-(3,4,5-trichlorophenyl)but-1-en-1-yl)-2-(trifluoromethyl)benzamide]
- pest or weed control at 50 µg/cm2 [1]: 50 to 100%
- pest or weed control at 50 µg/cm2 [2]: 50 to 100%

Structure (SMILES): CN(C)/C=N/C(=O)c1ccc(/C(F)=C/C(c2cc(Cl)c(Cl)c(Cl)c2)C(F)(F)F)cc1C(F)(F)F (stereo not drawn) [F18, (E)-N-((dimethylamino)methylene)-4-((Z)-1,4,4,4-tetrafluoro-3-(3,4,5-trichlorophenyl)but-1-en-1-yl)-2-(trifluoromethyl)benzamide]
- pest or weed control at 50 µg/cm2 [1]: 50 to 100%
- pest or weed control at 50 µg/cm2 [2]: 50 to 100%

Structure (SMILES): Cc1ccc([C@@H](C)NC(=O)c2ccc(/C(F)=C/C(c3cc(Cl)c(Cl)c(Cl)c3)C(F)(F)F)cc2C(F)(F)F)cc1 (stereo partly drawn) [F8, 4-((Z)-1,4,4,4-Tetrafluoro-3-(3,4,5-trichlorophenyl)but-1-en-1-yl)-N—((R)-1-(p-tolyl)ethyl)-2-(trifluoromethyl)benzamide]
- pest or weed control at 50 µg/cm2 [1]: 50 to 100%
- pest or weed control at 50 µg/cm2 [2]: 50 to 100%

Structure (SMILES): O=C(NC1CC1)c1ccc(/C(F)=C/C(c2ccc(Cl)c(Cl)c2)C(F)(F)F)cc1C(F)(F)F (stereo not drawn) [F35, (Z)—N-Cyclopropyl-4-(3-(3,4-dichlorophenyl)-1,4,4,4-tetrafluorobut-1-en-1-yl)-2-(trifluoromethyl)benzamide]
- pest or weed control at 50 µg/cm2 [1]: 50 to 100%
- pest or weed control at 50 µg/cm2 [2]: 50 to 100%

Structure (SMILES): O=C(NC1CCCC(F)(F)C1)c1ccc(/C(F)=C/C(c2cc(Cl)c(Cl)c(Cl)c2)C(F)(F)F)cc1C(F)(F)F (stereo not drawn) [F13, (Z)—N-(3,3-Difluorocyclohexyl)-4-(1,4,4,4-tetrafluoro-3-(3,4,5-trichlorophenyl)but-1-en-1-yl)-2-(trifluoromethyl)benzamide]
- pest or weed control at 50 µg/cm2 [1]: 50 to 100%
- pest or weed control at 50 µg/cm2 [2]: 50 to 100%
